# Patent publication US20140315933A1, “CHEMICAL COMPOUNDS” (Pfizer Limited, priority 2013, published 2014)
# Molecular target: T1, URAT-1 transporter (Homo sapiens, UniProt Q96S37)
# T1 construct: expressed in transfected cells
# Experiment: URAT-1 inhibitor activity: [14C]-uric acid uptake into CHO-URAT1(L)GFP#8 (CHO#8) cells, scintillation proximity
# Assay type: cell-based
# How it was run: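 Scintillation proximity read-out of 30 nM (final) [14C]-uric acid uptake over three hours at room temperature in chloride-free HEPES buffer pH 7.4. Compounds, 0–10 μM final with 0.25% DMSO, were added 15 minutes before substrate; cells were a clonal CHO line with human URAT1(L)-eGFP, preincubated 1 hour in chloride buffer.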
# T1 sequence (Q96S37 with tags, fused parts or gaps): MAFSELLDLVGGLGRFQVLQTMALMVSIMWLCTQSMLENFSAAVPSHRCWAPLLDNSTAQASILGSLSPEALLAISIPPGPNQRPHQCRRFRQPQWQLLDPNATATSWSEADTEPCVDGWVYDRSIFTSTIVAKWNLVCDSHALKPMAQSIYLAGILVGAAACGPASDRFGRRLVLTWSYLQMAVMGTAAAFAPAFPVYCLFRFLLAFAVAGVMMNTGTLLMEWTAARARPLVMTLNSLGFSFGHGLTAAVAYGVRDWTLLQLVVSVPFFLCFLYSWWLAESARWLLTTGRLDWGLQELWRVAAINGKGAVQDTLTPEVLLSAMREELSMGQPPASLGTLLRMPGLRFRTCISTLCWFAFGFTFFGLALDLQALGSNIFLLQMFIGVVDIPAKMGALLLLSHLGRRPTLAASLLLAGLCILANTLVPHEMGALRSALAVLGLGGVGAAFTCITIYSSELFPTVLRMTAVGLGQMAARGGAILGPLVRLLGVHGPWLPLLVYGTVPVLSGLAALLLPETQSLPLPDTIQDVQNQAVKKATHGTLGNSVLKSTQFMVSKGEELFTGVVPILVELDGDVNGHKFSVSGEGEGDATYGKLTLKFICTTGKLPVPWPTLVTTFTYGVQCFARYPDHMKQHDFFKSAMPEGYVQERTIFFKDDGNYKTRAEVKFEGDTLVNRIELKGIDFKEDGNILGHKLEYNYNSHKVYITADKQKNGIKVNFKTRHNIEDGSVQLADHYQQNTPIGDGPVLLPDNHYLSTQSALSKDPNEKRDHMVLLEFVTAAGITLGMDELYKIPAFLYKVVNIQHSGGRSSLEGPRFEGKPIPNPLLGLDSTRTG
row,Structure (SMILES),IC50 [nM]
1,"Cc1cc(F)ccc1Oc1ccc(S(=O)(=O)Nc2ncc(F)s2)cc1C#N [Example 93, 3-cyano-4-(4-fluoro-2-methylphenoxy)-N-(5-fluoro-1,3-thiazol-2-yl)benzenesulfonamide]",> 1610
2,"CCc1ccc(Oc2ccc(S(=O)(=O)Nc3ncc(F)s3)cc2C#N)cc1 [Example 95, 3-cyano-4-(4-ethylphenoxy)-N-(5-fluoro-1,3-thiazol-2-yl)benzenesulfonamide]",> 7360
3,"CC(C)c1ccccc1Oc1ccc(S(=O)(=O)Nc2ncc(F)s2)cc1C#N [Example 97, 3-cyano-N-(5-fluoro-1,3-thiazol-2-yl)-4-[2-(propan-2-yl)phenoxy]benzenesulfonamide]",1170
4,"N#Cc1cc(S(=O)(=O)Nc2ncc(F)s2)ccc1Oc1ccc(Cl)cc1 [Example 98, 4-(4-chlorophenoxy)-3-cyano-N-(5-fluoro-1,3-thiazol-2-yl)benzenesulfonamide]",> 1690
5,"CCc1cccc(Oc2ccc(S(=O)(=O)Nc3ncc(F)s3)cc2C#N)c1 [Example 99, 3-cyano-4-(3-ethylphenoxy)-N-(5-fluoro-1,3-thiazol-2-yl)benzenesulfonamide]",1630
6,"Cc1ccc(Oc2ccc(S(=O)(=O)Nc3ncc(F)s3)cc2C#N)c(C)c1 [Example 101, 3-cyano-4-(2,4-dimethylphenoxy)-N-(5-fluoro-1,3-thiazol-2-yl)benzenesulfonamide]",1760
7,"N#Cc1cc(S(=O)(=O)Nc2ncc(F)s2)ccc1Oc1cc(F)ccc1F [Example 102, 3-cyano-4-(2,5-difluorophenoxy)-N-(5-fluoro-1,3-thiazol-2-yl)benzenesulfonamide]",1430
8,"CC(C)c1ccc(Oc2ccc(S(=O)(=O)Nc3ncc(F)s3)cc2C#N)cc1 [Example 103, 3-cyano-N-(5-fluoro-1,3-thiazol-2-yl)-4-[4-(propan-2-yl)phenoxy]benzenesulfonamide]",> 6780
9,"N#Cc1cc(S(=O)(=O)Nc2ncc(F)s2)ccc1Oc1ccccc1F [Example 104, 3-cyano-4-(2-fluorophenoxy)-N-(5-fluoro-1,3-thiazol-2-yl)benzenesulfonamide]",2620
10,"Cc1ccc(F)cc1Oc1ccc(S(=O)(=O)Nc2ncc(F)s2)cc1C#N [Example 105, 3-cyano-4-(5-fluoro-2-methylphenoxy)-N-(5-fluoro-1,3-thiazol-2-yl)benzenesulfonamide]",> 1790
11,"N#Cc1cc(S(=O)(=O)Nc2ncc(F)s2)ccc1Oc1cc(F)cc(F)c1 [Example 106, 3-cyano-4-(3,5-difluorophenoxy)-N-(5-fluoro-1,3-thiazol-2-yl)benzenesulfonamide]",> 1340
12,"CC(C)c1cccc(Oc2ccc(S(=O)(=O)Nc3ncc(F)s3)cc2C#N)c1 [Example 107, 3-cyano-N-(5-fluoro-1,3-thiazol-2-yl)-4-[3-(propan-2-yl)phenoxy]benzenesulfonamide]",> 6780
13,"N#Cc1cc(S(=O)(=O)Nc2ncc(F)s2)ccc1Oc1cccc(Cl)c1 [Example 110, 4-(3-chlorophenoxy)-3-cyano-N-(5-fluoro-1,3-thiazol-2-yl)benzenesulfonamide]",> 7540
14,"Cc1ccccc1Oc1ccc(S(=O)(=O)Nc2ncc(F)s2)cc1C#N [Example 112, 3-cyano-N-(5-fluoro-1,3-thiazol-2-yl)-4-(2-methylphenoxy)benzenesulfonamide]",4030
15,"N#Cc1cc(S(=O)(=O)Nc2ncc(F)s2)ccc1Oc1cccc(F)c1F [Example 114, 3-cyano-4-(2,3-difluorophenoxy)-N-(5-fluoro-1,3-thiazol-2-yl)benzenesulfonamide]",4410
16,"N#Cc1cc(S(=O)(=O)Nc2ncc(F)s2)ccc1Oc1c(F)ccc(F)c1F [Example 115, 3-cyano-N-(5-fluoro-1,3-thiazol-2-yl)-4-(2,3,6-trifluorophenoxy)benzenesulfonamide]",1630
17,"N#Cc1cc(S(=O)(=O)Nc2ncc(F)s2)ccc1Oc1ccc(Cl)cc1F [Example 116, 4-(4-chloro-2-fluorophenoxy)-3-cyano-N-(5-fluoro-1,3-thiazol-2-yl)benzenesulfonamide]",> 5310
18,"Cc1cc(Cl)ccc1Oc1ccc(S(=O)(=O)Nc2ncc(F)s2)cc1C#N [Example 117, 4-(4-chloro-2-methylphenoxy)-3-cyano-N-(5-fluoro-1,3-thiazol-2-yl)benzenesulfonamide]",1440
19,"N#Cc1cc(S(=O)(=O)Nc2ncc(F)s2)ccc1Oc1cc(F)c(F)c(F)c1 [Example 118, 3-cyano-N-(5-fluoro-1,3-thiazol-2-yl)-4-(3,4,5-trifluorophenoxy)benzenesulfonamide]",1380
20,"N#Cc1cc(S(=O)(=O)Nc2ncc(F)s2)ccc1Oc1cccc(Cl)c1F [Example 119, 4-(3-chloro-2-fluorophenoxy)-3-cyano-N-(5-fluoro-1,3-thiazol-2-yl)benzenesulfonamide]",1570
21,"Cc1ccc(Oc2ccc(S(=O)(=O)Nc3ncc(F)s3)cc2C#N)c(F)c1F [Example 120, 3-cyano-4-(2,3-difluoro-4-methylphenoxy)-N-(5-fluoro-1,3-thiazol-2-yl)benzenesulfonamide]",1320
22,"Cc1ccc(F)c(Oc2ccc(S(=O)(=O)Nc3ncc(F)s3)cc2C#N)c1F [Example 123, 3-cyano-4-(2,6-difluoro-3-methylphenoxy)-N-(5-fluoro-1,3-thiazol-2-yl)benzenesulfonamide]",1250
23,"Cc1ccc(Oc2ccc(S(=O)(=O)Nc3ncc(F)s3)cc2C#N)c(Cl)c1 [Example 124, 4-(2-chloro-4-methylphenoxy)-3-cyano-N-(5-fluoro-1,3-thiazol-2-yl)benzenesulfonamide]",> 6360
24,"Cc1cccc(Cl)c1Oc1ccc(S(=O)(=O)Nc2ncc(F)s2)cc1C#N [Example 127, 4-(2-chloro-6-methylphenoxy)-3-cyano-N-(5-fluoro-1,3-thiazol-2-yl)benzenesulfonamide]",2290
25,"Cc1c(Oc2ccc(S(=O)(=O)Nc3ncc(F)s3)cc2C#N)ccc(F)c1F [Example 128, 3-cyano-4-(3,4-difluoro-2-(methylphenoxy)-N-5-fluoro-1,3-thiazol-2-yl)benzenesulfonamide]",1190
26,"N#Cc1cccc(Oc2ccc(S(=O)(=O)Nc3ncc(F)s3)cc2C#N)c1 [Example 132, 3-cyano-4-(3-cyanophenoxy)-N-(5-fluoro-1,3-thiazol-2-yl)benzenesulfonamide]",2600
27,"N#Cc1cc(S(=O)(=O)Nc2ncc(F)s2)ccc1Oc1cccc(C(F)(F)F)c1 [Example 133, 3-cyano-N-(5-fluoro-1,3-thiazol-2-yl)-4-[3-(trifluoromethyl)phenoxy]benzenesulfonamide]",1580

# Compounds with a lower IC50, results first:
row,IC50 [nM],Structure (SMILES)
1,621,"N#Cc1cc(S(=O)(=O)Nc2ncc(F)s2)ccc1Oc1c(F)cccc1F [Example 94, 3-cyano-4-(2,6-difluorophenoxy)-N-(5-fluoro-1,3-thiazol-2-yl)benzenesulfonamide]"
2,675,"N#Cc1cc(S(=O)(=O)Nc2ncc(F)s2)ccc1Oc1ccccc1Cl [Example 96, 4-(2-chlorophenoxy)-3-cyano-N-(5-fluoro-1,3-thiazol-2-yl)benzenesulfonamide]"
3,554,"CCOc1cccc(Oc2ccc(S(=O)(=O)Nc3ncc(F)s3)cc2C#N)c1 [Example 100, 3-cyano-4-(3-ethoxyphenoxy)-N-(5-fluoro-1,3-thiazol-2-yl)benzenesulfonamide]"
4,345,"CCc1ccccc1Oc1ccc(S(=O)(=O)Nc2ncc(F)s2)cc1C#N [Example 108, 3-cyano-4-(2-ethylphenoxy)-N-(5-fluoro-1,3-thiazol-2-yl)benzenesulfonamide]"
5,552,"COc1cccc(Oc2ccc(S(=O)(=O)Nc3ncc(F)s3)cc2C#N)c1 [Example 109, 3-cyano-N-(5-fluoro-1,3-thiazol-2-yl)-4-(3-methoxyphenoxy)benzenesulfonamide]"
6,871,"N#Cc1cc(S(=O)(=O)Nc2ncc(F)s2)ccc1Oc1ccc(F)c(Cl)c1 [Example 111, 4-(3-chloro-4-fluorophenoxy)-3-cyano-N-(5-fluoro-1,3-thiazol-2-yl)benzenesulfonamide]"
7,1120,"N#Cc1cc(S(=O)(=O)Nc2ncc(F)s2)ccc1Oc1cc(F)c(F)cc1F [Example 113, 3-cyano-N-(5-fluoro-1,3-thiazol-2-yl)-4-(2,4,5-trifluorophenoxy)benzenesulfonamide]"
8,1040,"N#Cc1cc(S(=O)(=O)Nc2ncc(F)s2)ccc1Oc1ccc(F)c(F)c1F [Example 121, 3-cyano-N-(5-fluoro-1,3-thiazol-2-yl)-4-(2,3,4-trifluorophenoxy)benzenesulfonamide]"
9,581,"COc1cc(F)cc(Oc2ccc(S(=O)(=O)Nc3ncc(F)s3)cc2C#N)c1 [Example 122, 3-cyano-4-(3-fluoro-5-methoxyphenoxy)-N-(5-fluoro-1,3-thiazol-2-yl)benzenesulfonamide]"
10,551,"N#Cc1cc(S(=O)(=O)Nc2ncc(F)s2)ccc1Oc1c(F)cccc1Cl [Example 125, 4-(2-chloro-6-fluorophenoxy)-3-cyano-N-(5-fluoro-1,3-thiazol-2-yl)benzenesulfonamide]"
11,699,"N#Cc1cc(S(=O)(=O)Nc2ncc(F)s2)ccc1Oc1cc(F)cc(Cl)c1 [Example 126, 4-(3-chloro-5-fluorophenoxy)-3-cyano-N-(5-fluoro-1,3-thiazol-2-yl)benzenesulfonamide]"
12,480,"Cc1ccc(Cl)cc1Oc1ccc(S(=O)(=O)Nc2ncc(F)s2)cc1C#N [Example 129, 4-(5-chloro-2-methylphenoxy)-3-cyano-N-(5-fluoro-1,3-thiazol-2-yl)benzenesulfonamide]"
13,414,"N#Cc1cc(S(=O)(=O)Nc2ncc(F)s2)ccc1Oc1ccc(F)cc1Cl [Example 130, 4-(2-chloro-4-fluorophenoxy)-3-cyano-N-(5-fluoro-1,3-thiazol-2-yl)benzenesulfonamide]"
14,297,"CCc1cc(F)ccc1Oc1ccc(S(=O)(=O)Nc2ncc(F)s2)cc1C#N [Example 131, 3-cyano-4-(2-ethyl-4-fluorophenoxy)-N-(5-fluoro-1,3-thiazol-2-yl)benzenesulfonamide]"
